Assay results: US20070128217A1 (priority 2003, published 2007)

Legend:
[1] = system: rabbit serum obtained by immunizing a rabbit with the SARS-CoV strain Frankfurt 1; assay type: binding; set-up: Binding of a rabbit serum to linear peptides / Binding of a rabbit serum to looped peptides / Rabbit serum linear peptides / Rabbit serum looped peptides / Binding of a rabbit serum to linear peptides of protein N of SARS-CoV Urbani (Rabbit serum linear peptides) / Binding of a rabbit serum to looped/cyclic peptides of protein N of SARS-CoV Urbani (Rabbit serum looped peptides): unit not given here
[2] = system: control sera (pooled serum of ten healthy LUMC hospital workers; commercial negative donor pooled serum from the Dutch bloodbank); assay type: binding, human; set-up: Binding of Control serum LUMC to linear peptides / Binding of Control serum Blood-bank to linear peptides / Binding of Control serum LUMC to looped peptides / Binding of Control Serum Blood-Bank to Looped peptides / Binding of Control serum LUMC to linear peptides of the protein M of SARS-CoV Urbani / Binding of Control serum Blood-bank to linear peptides of the protein M of SARS-CoV Urbani / Binding of Control serum LUMC to looped peptides of the protein M of SARS-CoV Urbani / Binding of Control Serum Blood-Bank to Looped peptides of the protein M of SARS-CoV Urbani: unit not given here
[3] = system: antibodies in sera from SARS patients (sera 1a, 1b, 2, 6, 37, 62, London, SARS-yellow, SARS-green); assay type: binding, human; set-up: Binding of serum 6 to linear peptides of protein X1 of SARS-CoV Urbani / Binding of serum 37 to linear peptides of protein X1 of SARS-CoV Urbani / Binding of serum 6 to looped/cyclic peptide (PEPSCAN-ELISA) / Binding of serum 37 to looped/cyclic peptide (PEPSCAN-ELISA) / Binding of serum 37 to looped/cyclic peptides of protein X1 of SARS-CoV Urbani / Binding of serum 6 to linear peptides of protein X2 / Binding of serum 37 to linear peptides of protein X2 / Binding of serum 37 to looped/cyclic peptides of protein X2 of SARS-CoV Urbani / Binding of serum 6 to linear peptides of protein M of SARS-CoV Urbani / Binding of serum 37 to linear peptides of protein M of SARS-CoV Urbani / Binding of serum 6 to looped/cyclic peptides of protein M of SARS-CoV Urbani / Binding of serum 37 to looped/cyclic peptides of protein M of SARS-CoV Urbani / Binding of serum 6 to linear peptides of protein X3 of SARS-CoV Urbani / Binding of serum 37 to linear peptides of protein X3 of SARS-CoV Urbani / Binding of serum 37 to looped/cyclic peptides of protein X3 of SARS-CoV Urbani / Binding of serum 6 to linear peptides of protein X4 of SARS-CoV Urbani / Binding of serum 37 to linear peptides of protein X4 of SARS-CoV Urbani / Binding of serum 37 to looped/cyclic peptides of protein X4 of SARS-CoV Urbani / Binding of serum 6 to linear peptides of protein X5 of SARS-CoV Urbani / Binding of serum 37 to linear peptides of protein X5 of SARS-CoV Urbani / Binding of serum 37 to looped/cyclic peptides of protein X5 of SARS-CoV Urbani / Binding of serum 6 to linear peptides of protein N of SARS-CoV Urbani / Binding of serum 37 to linear peptides of protein N of SARS-CoV Urbani / Binding of serum 6 to linear peptide (PEPSCAN-ELISA) / Binding of serum 1a to looped/cyclic peptides of protein N of SARS-CoV Urbani / Binding of serum 1b to looped/cyclic peptides of protein N of SARS-CoV Urbani / Binding of serum 2 to looped/cyclic peptides of protein N of SARS-CoV Urbani / Binding of serum 6 to looped/cyclic peptides of protein N of SARS-CoV Urbani / Binding of serum 37 to looped/cyclic peptides of protein N of SARS-CoV Urbani / Binding of serum 62 to looped/cyclic peptides of protein N of SARS-CoV Urbani / Binding of serum London to looped/cyclic peptides of protein N of SARS-CoV Urbani / Binding of serum SARS-green to looped/cyclic peptides of protein N of SARS-CoV Urbani: unit not given here

SFRLFARTRSMWSFN
Rabbit serum linear peptides [1]: 0.8 | Rabbit serum looped peptides [1]: 0.2 | Binding of Control Serum Blood-Bank to Looped peptides of the protein M of SARS-CoV Urbani [2]: 0.7 | Binding of Control serum Blood-bank to linear peptides of the protein M of SARS-CoV Urbani [2]: 0.6 | Binding of Control serum LUMC to linear peptides of the protein M of SARS-CoV Urbani [2]: 0.4 | Binding of Control serum LUMC to looped peptides of the protein M of SARS-CoV Urbani [2]: 0.6 | Binding of serum 1a to linear peptides of protein M of SARS-CoV Urbani [3]: 0.8 | Binding of serum 1a to looped/cyclic peptides of protein M of SARS-CoV Urbani [3]: 0.6 | Binding of serum 1b to linear peptides of protein M of SARS-CoV Urbani [3]: 0.7 | Binding of serum 1b to looped/cyclic peptides of protein M of SARS-CoV Urbani [3]: 0.5 | Binding of serum 2 to linear peptides of protein M of SARS-CoV Urbani [3]: 0.5 | Binding of serum 2 to looped/cyclic peptides of protein M of SARS-CoV Urbani [3]: 0.5 | Binding of serum 6 to linear peptides of protein M of SARS-CoV Urbani [3]: 0.2 | Binding of serum 6 to looped/cyclic peptides of protein M of SARS-CoV Urbani [3]: 0.8 | Binding of serum 37 to linear peptides of protein M of SARS-CoV Urbani [3]: 0.8 | Binding of serum 37 to looped/cyclic peptides of protein M of SARS-CoV Urbani [3]: 0.6 | Binding of serum 62 to linear peptides of protein M of SARS-CoV Urbani [3]: 0.7 | Binding of serum 62 to looped/cyclic peptides of protein M of SARS-CoV Urbani [3]: 0.6 | Binding of serum London to linear peptides of protein M of SARS-CoV Urbani [3]: 0.3 | Binding of serum London to looped/cyclic peptides of protein M of SARS-CoV Urbani [3]: 0.2 | Binding of serum SARS-green to linear peptides of protein M of SARS-CoV Urbani [3]: 0.4 | Binding of serum SARS-green to looped/cyclic peptides of protein M of SARS-CoV Urbani [3]: 0.3 | Binding of serum SARS-yellow to linear peptides of protein M of SARS-CoV Urbani [3]: 0.1 | Binding of serum SARS-yellow to looped/cyclic peptides of protein M of SARS-CoV Urbani [3]: 0.5

SGFAAYNRYRIGNYK
Rabbit serum linear peptides [1]: 1.2 | Rabbit serum looped peptides [1]: 1.6 | Binding of Control Serum Blood-Bank to Looped peptides of the protein M of SARS-CoV Urbani [2]: 0.7 | Binding of Control serum Blood-bank to linear peptides of the protein M of SARS-CoV Urbani [2]: 0.6 | Binding of Control serum LUMC to linear peptides of the protein M of SARS-CoV Urbani [2]: 0.4 | Binding of Control serum LUMC to looped peptides of the protein M of SARS-CoV Urbani [2]: 0.8 | Binding of serum 1a to linear peptides of protein M of SARS-CoV Urbani [3]: 0.8 | Binding of serum 1a to looped/cyclic peptides of protein M of SARS-CoV Urbani [3]: 0.9 | Binding of serum 1b to linear peptides of protein M of SARS-CoV Urbani [3]: 0.4 | Binding of serum 1b to looped/cyclic peptides of protein M of SARS-CoV Urbani [3]: 0.6 | Binding of serum 2 to linear peptides of protein M of SARS-CoV Urbani [3]: 0.6 | Binding of serum 2 to looped/cyclic peptides of protein M of SARS-CoV Urbani [3]: 0.9 | Binding of serum 6 to linear peptides of protein M of SARS-CoV Urbani [3]: 0.8 | Binding of serum 6 to looped/cyclic peptides of protein M of SARS-CoV Urbani [3]: 1.4 | Binding of serum 37 to linear peptides of protein M of SARS-CoV Urbani [3]: 0.7 | Binding of serum 37 to looped/cyclic peptides of protein M of SARS-CoV Urbani [3]: 0.7 | Binding of serum 62 to linear peptides of protein M of SARS-CoV Urbani [3]: 0.8 | Binding of serum 62 to looped/cyclic peptides of protein M of SARS-CoV Urbani [3]: 0.7 | Binding of serum London to linear peptides of protein M of SARS-CoV Urbani [3]: 0.4 | Binding of serum London to looped/cyclic peptides of protein M of SARS-CoV Urbani [3]: 0.3 | Binding of serum SARS-green to linear peptides of protein M of SARS-CoV Urbani [3]: 0.3 | Binding of serum SARS-green to looped/cyclic peptides of protein M of SARS-CoV Urbani [3]: 0.2 | Binding of serum SARS-yellow to linear peptides of protein M of SARS-CoV Urbani [3]: 0.0 | Binding of serum SARS-yellow to looped/cyclic peptides of protein M of SARS-CoV Urbani [3]: 0.7
